From US7138376B2, “Methods and compositions for treating hepatitis C virus using 4'-modified nucleosides” (Idenix Pharmaceuticals, Inc., priority 2001, dated 2006)

What was measured:
[1] = test system: MDBK; assay: Cytotoxicity assay (CC50, sulforhodamine B staining); format: cell-based; details: MDBK cells; 4 days incubation; concentration reducing cell number by 50%; preliminary results
Procedure: The test compounds were dissolved in DMSO at an initial concentration of 200 μM and then were serially diluted in culture medium.
Cells are seeded at a rate of between 5×10^3 and 5×10^4/well into 96-well plates in growth medium overnight at 37° C. in a humidified CO2 (5%) atmosphere. New growth medium containing serial dilutions of the drugs is then added. After incubation for 4 days, cultures are fixed in 50% TCA and stained with sulforhodamineB. The optical density was read at 550 nm. The cytotoxic concentration was expressed as the concentration required to reduce the cell number by 50% (CC50).

[2] = test system: HCV; details: cited from earlier work
[3] = test system: HCV protease; details: SDS-PAGE and autoradiography assay; cited from earlier work

Row | Structure (SMILES) | CC50 [1] | melting point | also measured
1 | C[C@]1(CO)O[C@@H](n2cc(F)c(=O)[nH]c2=O)[C@H](O)[C@@H]1O [β-D-4′-CH3-ribo-5-fluoroU] | > 167 µM | – | –
2 | NC(=O)c1ncn([C@@H]2O[C@H](CO)[C@@H](O)[C@H]2O)n1 [Ribavirin, 1-β-D-ribofuranosyl-1-1,2,4-triazole-3-carboxamide] | – | – | effect on serum levels of HCV-RNA ([2]; patients, sole treatment): does not lower serum levels of HCV-RNA; patients in whom serum amino transferase levels are reduced to normal ([2]; ribavirin alone): 40%
3 | C[C@]1(CO)O[C@@H](n2ccc(=S)[nH]c2=O)[C@H](O)[C@@H]1O [β-D-4′-CH3-ribo-4-thioU, 1-(4-C-methyl-β-D-ribofuranosyl)4-thio-uracil] | > 250 µM | 65 to 70 °C (dec.) | –
4 | CCCC(=O)c1cc2c(c(O)c1C)C(=O)C(=O)c1c(O)cccc1-2 [Sch 68631] | – | – | activity against HCV protease [3]: micromolar activity
5 | Cc1cn([C@@H]2O[C@](C)(CO)[C@@H](O)[C@H]2O)c(=O)[nH]c1=O [β-D-4′-CH3-riboT, 1-(4-C-methyl-β-D-ribofuranosyl)thymine] | > 250 µM | 258 to 260 °C (dec.) | –
6 | C[C@]1(CO)O[C@@H](n2ccc(N)nc2=O)[C@H](O)[C@@H]1O [β-D-4′-CH3-riboC, 1-(4-C-methyl-β-D-ribofuranosyl)cytosine] | > 250 µM | – | –
7 | C[C@]1(CO)O[C@@H](n2cnc3c(N)ncnc32)[C@H](O)[C@@H]1O [β-D-4′-CH3-riboA, 9-(4-C-methyl-β-D-ribofuranosyl) adenine] | > 250 µM | 96 to 97 °C (dec.) | –
8 | C[C@]1(CO)O[C@@H](n2cnc3c(=O)[nH]c(N)nc32)[C@H](O)[C@@H]1O [β-D-4′-CH3-riboG, 9-(4-C-methyl-β-D-ribofuranosyl) guanine] | > 250 µM | – | –
